Results from patent publication US20260078348A1, “MULTIPLE MYELOMA MICROORGANOSPHERES” (Xilis, Inc., priority 2022, published 2026).

Assays:
MM MOS [1] = experiment: Caspase 3/7 green dye apoptosis monitoring of drug-treated MM MOS (INCUCYTE imaging); assay type: cell-based, human; details: for MM MOS death (Caspase 3/7 signal): day 11 MM MOS, 5 μM lenalidomide or 2 nM bortezomib for 92 hours, vs negative control
Protocol: Studies were conducted to determine the effects of various MM drugs on the MM MOS. For example, day 11 MM MOS were treated with 5 μM lenalidomide or 2 nM bortezomib for 92 hours, with no medium change during the drug treatment. Caspase 3/7 green dye was included in the medium to monitor apoptosis, and fluorescence was measured.

MM MOS [2] = experiment: Live/dead dye (calcein AM / ethidium homodimer) imaging of drug-treated MM MOS; assay type: cell-based, human; details: for MM MOS response to treatment: 10 μM for 4 days, live/dead dye images, n=3, p<0.05 by t-test; for live/dead ratio: 10 μM, 4 days of treatment beginning on day 9 of MOS generation, compared to negative control
Protocol: Further studies were conducted using 10 μM carfilzomib or 10 μM selinexor treatment beginning on day 9 of MOS generation from MM patient bone marrow biopsy samples. After 4 days of treatment, live/dead dyes (calcein AM-green and ethidium homodimer-red) were added to the wells for a 30-minute incubation.

SMILES | MM MOS death (Caspase 3/7 signal) (MM MOS [1]) | MM MOS response to treatment (MM MOS [2]) | live/dead ratio (MM MOS [2]) | time at which MM MOS responded after onset of treatment (MM MOS [1]; 5 μM lenalidomide, INCUCYTE images taken every 2 hours) [h]
CC(C)C[C@H](NC(=O)[C@H](Cc1ccccc1)NC(=O)c1cnccn1)B(O)O [bortezomib] | not | – | – | –
CC(C)C[C@H](NC(=O)[C@H](CCc1ccccc1)NC(=O)CN1CCOCC1)C(=O)N[C@@H](Cc1ccccc1)C(=O)N[C@@H](CC(C)C)C(=O)[C@@]1(C)CO1 [carfilzomib] | – | responded | significantly reduced | –
Nc1cccc2c1CN(C1CCC(=O)NC1=O)C2=O (stereo not shown) [lenalidomide] | increased | – | – | 24
O=C(/C=C\n1cnc(-c2cc(C(F)(F)F)cc(C(F)(F)F)c2)n1)NNc1cnccn1 [selinexor] | – | responded | significantly reduced | –
